Counter-ions that a name gives are not always drawn.
Biological target: T1, human GPR120 (Homo sapiens, UniProt Q5NUL3)
T1 construct: expressed in transfected cells; host or cells: CHO-K1
T1 sequence (Q5NUL3 1-361): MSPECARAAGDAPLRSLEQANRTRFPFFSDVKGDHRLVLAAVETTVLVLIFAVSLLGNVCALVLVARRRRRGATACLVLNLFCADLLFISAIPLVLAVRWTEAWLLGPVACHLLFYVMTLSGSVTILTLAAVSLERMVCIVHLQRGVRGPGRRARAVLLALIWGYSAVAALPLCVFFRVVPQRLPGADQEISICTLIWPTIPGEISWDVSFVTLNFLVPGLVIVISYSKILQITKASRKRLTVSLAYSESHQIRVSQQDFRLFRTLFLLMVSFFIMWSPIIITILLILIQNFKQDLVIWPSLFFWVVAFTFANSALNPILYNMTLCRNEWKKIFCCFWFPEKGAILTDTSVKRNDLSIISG
Experiment: Human GPR120 IP1 assay (inositol phosphate turnover)
Assay type: cell-based
Conditions: IP1 accumulation in CHO-K1 cells stably expressing the short form of human GPR120
Text: The binding of small molecule agonists to the G-protein-coupled receptor GPR120 activates phospholipase C, and leads to the generation of inositol 1,4,5-trisphosphate (InsP3 or IP3). IP3 is subsequently de-phosphorylated to IP1, which accumulates in cells and is stable in the presence of lithium chloride.
In the present method, agonist-induced activation of the human and rat GPR120 receptor was monitored by measuring the accumulation of IP1 in CHO-K1 cells that were stably expressing the short form of human GPR120 (Accession #NM_001195755) or HEK293 cells stably expressing rat GPR120 (Accession #NM_001047088). Following agonist addition, GPR120 activation and subsequent accumulation of IP1 was measured using a homogeneous Time Resolved Fluorescence-based ELISA commercially available from CisBio (IP-one ELISA Kit). The IP-One ELISA was a competitive immunoassay which uses IP1 labeled with […] and a terbium cryptate-labeled anti-IP1 monoclonal antibody. […] The signal loss was then back calculated to IP1 concentration using an IP1 standard curve. Determination of IP1 concentration was a direct measure of GPR120 activation and was used to determine compound potency (EC50).
Human GPR120 stable cell-lines were generated in CHO cells. The expression plasmids were transfected using lipofectamine (Life Technologies) following manufacturer's instructions. Stable cell-lines were generated following drug selection and single cell cloning. Rat GPR120 stable cell-lines were generated in HEK cells using the Jump-In™ cell engineering platform (Life Technologies) following manufacturer's instructions. Stable cell-lines were generated following drug selection and single cell cloning.
The assay was performed in 384-well format. CHO cells stably expressing human GPR120 were plated at 20,000 cells per well in growth medium (DMEM/F12, 10% fetal calf serum). HEK293 cells stably expressing rat GPR120 were plated at […] per well in growth medium (DMEM, 10% fetal calf serum). Cell plates were then incubated 16 hours at 37 degrees in a 5% CO2 incubator. Measurement of Inositol Phosphate Turnover (IP1) was performed using the CisBio IP-One kit (Part number 62IPAPEB). After the 16 hour incubation, the growth media was removed by centrifugation using the BlueWasher (AusWasher GUI Ver. v1.0.1.8) Protocol #21-“Light Dry” and 10 μl of stimulation buffer (prepared as described in the kit) was added to each well. In a separate plate, compounds were diluted in DMSO (200-fold over the final concentration in the assay well) and 50 nl was acoustically transferred to the appropriate well in the assay cell plate. The plates were then incubated for 60 minutes at 37 degrees in a 5% CO2 incubator. 10 μl of detection buffer (also prepared as described in the IP-One kit) was added to each well and the plates were incubated at room temperature for 60 minutes in the dark. The plates were then read in a Perkin ElmerEnVision or equivalent reader able to measure FRET. Fluorescent ratio of emission at 665 and 620 nm was then converted to the IP1 concentration by back calculating from an IP1 standard curve prepared at the time of the assay. The data was normalized to % activity using a reference compound, and the EC50 values were determined using a standard 4-parameter fit.

SMILES | EC50
Oc1cc(-c2cnc(OC3CC(OCc4cc(C(F)(F)F)ccc4F)C3)cn2)on1 (mixture of isomers) [Example 79, 5-{5-[(cis-3-{[2-fluoro-5-(trifluoromethyl)benzyl]oxy}cyclobutyl)oxy]pyrazin-2-yl}isoxazol-3-ol (mixture of isomers predominantly cis)] | 13 nM
Oc1cc(-c2cnc(O[C@H]3C[C@@H](Oc4ccc(C(F)(F)F)cc4)C3)cn2)on1 [Example 67, ammonium 5-[5-({cis-3-[4-(trifluoromethyl)phenoxy]cyclobutyl}oxy)pyrazin-2-yl]isoxazol-3-olate] | 47 nM
CCOc1cc([C@H]2C[C@H](Oc3cnc(-c4cc(O)no4)cn3)C2)ccn1 [Example 27, sodium 5-(5-{[trans-3-(2-ethoxypyridin-4-yl)cyclobutyl]oxy}pyrazin-2-yl)isoxazol-3-olate] | 177 nM
Oc1cc(-c2cnc(O[C@H]3C[C@@H](Oc4cccc(C(F)(F)F)c4)C3)cn2)on1 [Example 66, ammonium 5-[5-({cis-3-[3-(trifluoromethyl)phenoxy]cyclobutyl}oxy)pyrazin-2-yl]isoxazol-3-olate] | 37 nM
CC1[C@@H](Oc2cnc(-c3cc(O)no3)cn2)C[C@H]1c1ccccc1 (stereo partly drawn) [Example 92, 5-(5-{[(1S,3R)-2-methyl-3-phenylcyclobutyl]oxy}pyrazin-2-yl)isoxazol-3-ol] | 17 nM
Oc1cc(-c2cnc(O[C@H]3C[C@@H](c4cc(F)c(Cl)c(F)c4)C3)cn2)on1 [Example 52, 5-(5-{[cis-3-(4-chloro-3,5-di-fluorophenyl)cyclobutyl]oxy}pyrazin-2-yl)isoxazol-3-ol] | 28 nM
Oc1cc(-c2ccc(OC3CC(c4ccc(C5CC5)cc4)C3)nc2)on1 (stereo not drawn) [Example 15, 5-(6-{[3-(4-cyclo-propyl-phenyl)cyclobutyl]oxy}pyridin-3-yl)isoxazol-3-ol] | 41 nM
Oc1cc(-c2cnc(O[C@H]3C[C@@H](c4ccc(-c5cnco5)cc4)C3)cn2)on1 [Example 16, 5-[5-({cis-3-[4-(1,3-oxazol-5-yl)phenyl]cyclobutyl}oxy)pyrazin-2-yl]isoxazol-3-ol] | 64 nM
Oc1cc(-c2cnc(O[C@H]3C[C@@H](c4ccc(C5CC5)cc4)C3)cn2)on1 [Example 20, ammonium 5-(5-{[cis-3-(4-cyclopropylphenyl)cyclobutyl]oxy}pyrazin-2-yl)isoxazol-3-olate] | 42 nM
Oc1cc(-c2cnc(O[C@H]3C[C@@H](Oc4csc(C(F)(F)F)c4)C3)cn2)on1 [Example 69, 5-{5-[(cis-3-{[5-(trifluoromethyl)thiophen-3-yl]oxy}cyclobutyl)oxy]pyrazin-2-yl}isoxazol-3-ol] | 25 nM
CC(C)Oc1cc([C@]2(F)C[C@H](Oc3cnc(-c4cc(O)no4)cn3)C2)ccn1 [Example 101, sodium 5-[5-({trans-3-fluoro-3-[2-(propan-2-yloxy)pyridin-4-yl]cyclobutyl}oxy)pyrazin-2-yl]isoxazol-3-olate] | 538 nM
Oc1cc(-c2cnc(O[C@H]3C[C@@H](c4ccc(-c5ccc(C(F)(F)F)nc5)cc4)C3)cn2)on1 [Example 18, 5-{5-[(cis-3-{4-[6-(trifluoromethyl)pyridin-3-yl]phenyl}cyclobutyl)oxy]pyrazin-2-yl}isoxazol-3-ol] | 134 nM
Oc1cc(-c2ccc(O[C@H]3C[C@@H](c4ncc(C(F)(F)F)cc4F)C3)nc2)on1 [Example 9, sodium 5-[6-({cis-3-[3-fluoro-5-(trifluoromethyl)pyridin-2-yl]-cyclobutyl}oxy)pyridin-3-yl]isoxazol-3-olate] | 23 nM

The remaining lines, values ahead:

EC50 | SMILES
104 nM | Cc1ccc([C@H]2C[C@H](Oc3cnc(-c4cc(O)no4)cn3)C2)c(F)c1 [Example 47, 5-(5-{[trans-3-(2-fluoro-4-methylphenyl)cyclobutyl]oxy}pyrazin-2-yl)isoxazol-3-ol]
17 nM | Oc1cc(-c2cnc(O[C@H]3C[C@@H](c4ccc(Cl)cc4)C3)cn2)on1 [Example 38, sodium 5-(5-{[cis-3-(4-chlorophenyl)cyclobutyl]oxy}pyrazin-2-yl)isoxazol-3-olate]
25 nM | Oc1cc(-c2cnc(O[C@H]3C[C@@H](COc4ccccc4F)C3)cn2)on1 [Example 85, sodium 5-[5-({cis-3-[(2-fluorophenoxy)methyl]cyclobutyl}oxy)pyrazin-2-yl]isoxazol-3-olate]
40 nM | Oc1cc(-c2ccc(O[C@H]3C[C@@H](OCc4ccc(F)c(F)c4)C3)nc2)on1 [Example 62, 2-({cis-3-[(3,4-difluorobenzyl)oxy]cyclobutyl}oxy)-5-(3-hydroxy-isoxazol-5-yl)pyridinium trifluoroacetate]
215 nM | CC1(c2ccc(Cl)cc2)CC(Oc2cnc(-c3cc(O)no3)cn2)C1 (stereo not drawn) [Example 93, 5-(5-{[3-(4-chlorophenyl)-3-methylcyclobutyl]oxy}pyrazin-2-yl)isoxazol-3-ol]
11 nM | Oc1cc(-c2cnc(O[C@H]3C[C@@H](c4ccc(Br)cc4)C3)cn2)on1 [Example 7, ammonium 5-(5-{[cis-3-(4-bromophenyl)cyclobutyl]oxy}pyrazin-2-yl)isoxazol-3-olate]
12 nM | Oc1cc(-c2cnc(O[C@H]3C[C@@H](COc4cccc(F)c4)C3)cn2)on1 [Example 84, sodium 5-[5-({cis-3-[(3-fluorophenoxy)methyl]cyclobutyl}oxy)pyrazin-2-yl]isoxazol-3-olate]
178 nM | Oc1cc(-c2cnc(O[C@H]3C[C@H](c4ccc(C(F)F)c(F)c4)C3)cn2)on1 [Example 2, 5-[5-({trans-3-[4-(difluoromethyl)-3-fluorophenyl]cyclobutyl}oxy)pyrazin-2-yl]isoxazol-3-ol]
48 nM | Oc1cc(-c2cnc(O[C@H]3C[C@@H](c4cc(OC5CC5)ccc4F)C3)cn2)on1 [Example 39, 5-[5-({cis-3-[5-(cyclopropyloxy)-2-fluorophenyl]cyclobutyl}oxy)pyrazin-2-yl]isoxazol-3-ol]
60 nM | Oc1cc(-c2ccc(O[C@H]3C[C@@](F)(c4ccc5c(c4)OC(F)(F)O5)C3)nc2)on1 [Example 104, ammonium 5-(6-{[trans-3-(2,2-difluoro-1,3-benzodioxol-5-yl)-3-fluorocyclobutyl]oxy}pyridin-3-yl)isoxazol-3-olate]
53 nM | Oc1cc(-c2cnc(O[C@H]3C[C@@H](Oc4ccc(F)c(Cl)c4)C3)cn2)on1 [Example 63, ammonium 5-(5-{[cis-3-(3-chloro-4-fluorophenoxy)cyclobutyl]-oxy}pyrazin-2-yl)isoxazol-3-olate]
82 nM | Oc1cc(-c2cnc(O[C@H]3C[C@@H](c4nc(C(F)(F)F)cs4)C3)cn2)on1 [Example 5, 5-[5-({cis-3-[4-(trifluoromethyl)-1,3-thiazol-2-yl]cyclobutyl}oxy)pyrazin-2-yl]isoxazol-3-ol]
112 nM | Oc1cc(-c2ccc(O[C@H]3C[C@@H](c4cc(OC(F)(F)F)ccc4F)C3)nc2)on1 [Example 11, ammonium 5-[6-({cis-3-[2-fluoro-5-(trifluoromethoxy)phenyl]cyclo-butyl}oxy)pyridin-3-yl]isoxazol-3-olate]
181 nM | CCc1ccc([C@H]2C[C@@H](Oc3ccc(-c4onc(O)c4F)cn3)C2)cc1 [Example 13, ammonium 5-(6-{[cis-3-(4-ethylphenyl)cyclobuty]oxy}pyridin-3-yl)-4-fluoroisoxazol-3-olate]
